One molecule from patent US20210392936A1, “Nutritional composition comprising urea and non-digestible oligosaccharides” (N.V. Nutricia, priority 2018, published 2021) can be followed below.

The test system of this assay is urease positive B. longum ssp. infantis strains M-63, ATCC17930, DN_163_0041 and R-0033. Briefly: Growth with urea concentrations or tryptone as nitrogen source, scGOS/IcFOS as carbon source (Example 3, second experiment), urease positive. The class given is cell-based, Bifidobacterium longum ssp. infantis. The settings on record: scGOS/IcFOS 20 g/l. As for the experimental part:
Fermenters were sterilized containing 80 ml demi water and 20 ml of a 20 wt % solution of scGOS/IcFOS in a 9:1 wt/wt ratio. As a source of scGOS VivinalGOS (DOMO, Friesland Campina) was used, and as a source of IcFOS, RaftilinHP was used (Orafti). After sterilization 100 ml of sterilized 2× concentrated BASE medium was added. The final concentration of scGOS/IcFOS was 2 wt % based on volume, and this served as the carbon source. As a nitrogen source tryptone was added (3.0 g/l), or 0, 10, 50 or 100 mM urea (final concentration), corresponding to 0, 0.6 g/l, 3 g/l and 6 g/l. Precultures were grown in static tubes in 1×BASE supplemented with 3.0 g/l tryptone and 2 wt % scGOS/IcFOS under an anaerobic gas atmosphere (90% N2, 5% Hz, 5% CO2).
Inoculation occurred from a single colonies grown on TOS-mupirocin agar plates as known in the art. The main cultures (in the fermenters) were performed with 1×BASE supplemented with 0, 15, 50 or 100 mM urea (if applicable). During fermentation the headspace was flushed with N2 gas or with an anaerobic gas mixture ((90% N2, 5% H2, 5% CO2). CO2 is known to be needed for the growth of most Bifidobacteria in the absence of substrates that can liberate CO2.
The main fermenters were inoculated with the preculture of B. breve at an OD600 of 0.05. For the B. longum subspecies infantis and bifidum mix the individual precultures were first mixed in an equal amount based on OD600 and subsequently also inoculated with a start OD600 of 0.05. The medium was stirred at 360 rpm by magnet stirring bar. The pH was controlled at 6.2 by addition of 5M NaOH. All growth (precultures, main fermenters, agar plates) experiments were performed at 37° C. Growth was monitored in time by off-line OD600 measurement. Samples were diluted before measurement where appropriate.
A second experiment was performed. Here the growth with different concentrations urea as nitrogen (and CO2) source was compared to Tryptone (from Oxoid) as nitrogen source. In this case only B. longum ssp. infantis strains M-63, ATCC17930, DN_163_0041 and R-0033 were used and tryptone was removed from the basal medium. Where applicable tryptone or urea were added as nitrogen source to final concentrations of 3 g/l and 10, 50 or 100 mM, respectively. Instead of lactose as carbon source scGOS/IcFOS in a 9:1 wt/wt ratio was used in a final concentration of 20 g/l. As a source of scGOS VivinalGOS (FrieslandCampina) was used, and RaftininHP (Orafti) was used as IcFOS source.

`NC(N)=O` [urea]: the “Growth expressed as OD600” value was determined as 0.079 OD600 (CO2 gas, 50 mM urea, 15 min); 0.161 OD600 (CO2 gas, 50 mM urea, 135 min); 0.670 OD600 (CO2 gas, 50 mM urea, 270 min); 2.610 OD600 (CO2 gas, 50 mM urea, 445 min); 6.500 OD600 (CO2 gas, 50 mM urea, 625 min); 6.5 OD600 (CO2 gas, 50 mM urea, 24 h). Also, the “Growth expressed as OD600” value reads like this: (N2 gas, 10 mM urea, 15 min) 0.084 OD600; (N2 gas, 10 mM urea, 135 min) 0.137 OD600; (N2 gas, 10 mM urea, 270 min) 0.390 OD600; (N2 gas, 10 mM urea, 445 min) 1.280 OD600; (N2 gas, 10 mM urea, 625 min) 3.900 OD600; (N2 gas, 10 mM urea, 24 h) 3.720 OD600. Further, the “Growth expressed as OD600” value (N2 gas, 50 mM urea, 15 min) was determined as 0.082 OD600; the “Growth expressed as OD600” value (N2 gas, 50 mM urea, 135 min) worked out at 0.140 OD600; the “Growth expressed as OD600” value (N2 gas, 50 mM urea, 270 min) stood at 0.450 OD600; the “Growth expressed as OD600” value (N2 gas, 50 mM urea, 445 min) was found to be 1.260 OD600; the “Growth expressed as OD600” value (N2 gas, 50 mM urea, 625 min) amounted to 2.970 OD600; the “Growth expressed as OD600” value (N2 gas, 50 mM urea, 24 h) was 2.850 OD600. The “Growth expressed as OD600” value is, setting by setting: (N2 gas, 100 mM urea, 15 min) 0.079 OD600; (N2 gas, 100 mM urea, 135 min) 0.144 OD600; (N2 gas, 100 mM urea, 270 min) 0.430 OD600; (N2 gas, 100 mM urea, 445 min) 1.130 OD600; (N2 gas, 100 mM urea, 625 min) 2.800 OD600; (N2 gas, 100 mM urea, 24 h) 2.520 OD600.
